Reference: paper PMC9861757, “New Insights into Conformationally Restricted Carbonic Anhydrase Inhibitors” (Molecules, 2023)
Read-outs that look alike come from different tables or passages of the source.

Experiments:
human CA IX [1] = molecular target: T1, human CA IX (Homo sapiens, UniProt Q16790); experiment: stopped-flow CO2 hydrase assay, CA IX inhibition; conditions: for SI (IX/II): ratio KI CA IX / KI CA II
Protocol: (§1) An Applied Photophysics stopped-flow instrument was used to assay the CA catalyzed CO2 hydration activity [14]. […] The uncatalyzed rates were determined in the same manner and subtracted from the total observed rates. Stock solutions of the inhibitor (0.1 mM) were prepared in distilled–deionized water and dilutions up to 0.01 nM were done thereafter with the assay buffer. Inhibitor and enzyme solutions were preincubated together for 15 min at room temperature prior to the assay to allow for the formation of the E–I complex. The inhibition constants were obtained by non-linear least-squares methods using PRISM 3 and the Cheng–Prusoff equation, as reported earlier, and represent the mean from at least three different determinations. All CA isoforms were recombinant proteins obtained in house, as reported earlier [1, 12, 13].

human CA XII [2] = molecular target: T2, human CA XII (Homo sapiens, UniProt O43570); experiment: stopped-flow CO2 hydrase assay, CA XII inhibition
Protocol: as §1

human CA I [3] = molecular target: T3, human CA I (Homo sapiens, UniProt P00915); experiment: stopped-flow CO2 hydrase assay, CA I inhibition; conditions: for inhibition of CA I (in words): qualitative statement; for loss of CA I inhibition potency relative to 3a: comparator 3a
Protocol: as §1

human CA II [4] = molecular target: T4, human CA II (Homo sapiens, UniProt P00918); experiment: stopped-flow CO2 hydrase assay, CA II inhibition
Protocol: as §1

human CA I [5] = molecular target: T3, human CA I; set-up: made in house; method as in PMID 31076951; conditions: stopped-flow CO2 hydrase assay; compound marked with a reference in Table 1; cited from earlier work
human CA XII [6] = molecular target: T2, human CA XII; set-up: made in house; method as in PMID 31076951; conditions: stopped-flow CO2 hydrase assay; compound marked with a reference in Table 1; cited from earlier work
human CA II [7] = molecular target: T4, human CA II; set-up: made in house; method as in PMID 31076951; conditions: stopped-flow CO2 hydrase assay; compound marked with a reference in Table 1; cited from earlier work
human CA IX [8] = molecular target: T1, human CA IX; set-up: made in house; method as in PMID 31076951; conditions: stopped-flow CO2 hydrase assay; compound marked with a reference in Table 1; cited from earlier work

T3 sequence (P00915 whole entry): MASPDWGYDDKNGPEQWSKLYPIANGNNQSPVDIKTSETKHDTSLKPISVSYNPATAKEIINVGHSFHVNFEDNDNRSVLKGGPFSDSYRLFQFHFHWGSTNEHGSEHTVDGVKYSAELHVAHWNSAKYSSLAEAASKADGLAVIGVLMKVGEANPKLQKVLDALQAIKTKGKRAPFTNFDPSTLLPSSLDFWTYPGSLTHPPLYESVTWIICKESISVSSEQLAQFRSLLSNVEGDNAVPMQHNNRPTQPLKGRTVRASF
T2 sequence (O43570 25-354): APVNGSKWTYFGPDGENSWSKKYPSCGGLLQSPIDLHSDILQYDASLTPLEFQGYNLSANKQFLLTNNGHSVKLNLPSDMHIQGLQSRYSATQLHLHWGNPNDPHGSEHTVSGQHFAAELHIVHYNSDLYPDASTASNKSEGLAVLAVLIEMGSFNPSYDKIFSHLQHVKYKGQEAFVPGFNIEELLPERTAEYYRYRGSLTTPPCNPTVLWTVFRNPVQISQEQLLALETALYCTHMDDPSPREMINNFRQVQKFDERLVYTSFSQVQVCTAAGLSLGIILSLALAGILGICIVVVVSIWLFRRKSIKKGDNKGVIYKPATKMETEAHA

Compound	Ki (human CA IX [1])	SI (IX/II) (human CA IX [1])	Ki (human CA XII [2])	Ki (human CA I [3])	Ki (human CA II [4])	further results
NS(=O)(=O)c1ccc(O)c(NC(=O)N2CCN(CC(=O)NC3CCCCC3)CC2)c1 [Compound 3i, 4-(2-(Cyclohexylamino)-2-oxoethyl)-N-(2-hydroxy-5-sulfamoylphenyl)piperazine-1-carboxamide]	204 nM	0.50	33.7 nM	0.698 µM	405 nM	inhibition of CA I (in words) (human CA I [3]; CA I): did not result in appreciable inhibition
NS(=O)(=O)c1ccc(O)c(NC(=O)NCc2ccncc2)c1 [Compound 3g, 4-Hydroxy-3-(3-(pyridin-4-ylmethyl)ureido)benzenesulfonamide]	–	0.0006	–	–	–	Ki (human CA I [5]): 89.5 nM; Ki (human CA XII [6]): 85.1 nM; Ki (human CA II [7]): 463 nM; Ki (human CA IX [8]): 0.3 nM; more potent on CA I compared to AAZ (human CA I [3]; CA I, comparator AAZ): up to 2.8 fold
NS(=O)(=O)c1ccc(O)c(NC(=O)NCCCCO)c1 [Compound 3j, 4-Hydroxy-3-(3-(4-hydroxybutyl)ureido)benzenesulfonamide]	–	0.46	–	–	–	Ki (human CA XII [6]): 47.1 nM; Ki (human CA II [7]): 280 nM; Ki (human CA IX [8]): 215 nM; inhibition of CA I (in words) (human CA I [3]; CA I): did not result in appreciable inhibition
NS(=O)(=O)c1ccc(CCNC(=O)Nc2ccccc2O)cc1 [Compound 3k, 4-(2-(3-(2-Hydroxyphenyl)ureido)ethyl)benzenesulfonamide]	34.7 nM	0.77	239 nM	–	75.9 nM	inhibition of CA I (in words) (human CA I [3]; CA I): did not result in appreciable inhibition; less effective on CA II than AAZ (human CA II [4]; CA II, comparator AAZ): 6.3 fold
NS(=O)(=O)c1ccc(O)c(NC(=O)N2CCOCC2)c1 [Compound 3c, N-(2-Hydroxy-5-sulfamoylphenyl)morpholine-4-carboxamide]	140 nM	0.017	73.8 nM	4 µM	8030 nM	CA IX potency increase relative to 3b (human CA IX [1]; CA IX, comparator 3b): 2.2 fold; loss of CA I inhibition potency relative to 3a (human CA I [3]; CA I): 6.9 fold
NS(=O)(=O)c1ccc(O)c(NC(=O)N2CCCC2)c1 [Compound 3a, N-(2-Hydroxy-5-sulfamoylphenyl)pyrrolidine-1-carboxamide]	369 nM	0.12	91.3 nM	0.583 µM	3180 nM	more effective CA XII inhibitor than 3b (human CA XII [2]; CA XII, comparator 3b): 5.5 fold
NS(=O)(=O)c1ccc(O)c(NC(=O)NCCN2CCOCC2)c1 [Compound 3e, 4-Hydroxy-3-(3-(2-morpholinoethyl)ureido)benzenesulfonamide]	2140 nM	0.71	629 nM	9.21 µM	3000 nM	more potent CA IX inhibition compared to 3d (human CA IX [1]; CA IX, comparator 3d): 1.9 fold; decrease of CA I affinity relative to 3d (human CA I [3]; CA I, comparator 3d): 13.4 fold
NS(=O)(=O)c1ccc(O)c(NC(=O)N2CCCCC2)c1 [Compound 3b, N-(2-Hydroxy-5-sulfamoylphenyl)piperidine-1-carboxamide]	308 nM	0.34	507 nM	8.65 µM	914 nM	more effective on CA IX than 3a (human CA IX [1]; CA IX, comparator 3a): 1.2 fold; loss of CA I inhibition potency relative to 3a (human CA I [3]; CA I): 14.8 fold; more effective on CA II than 3a (human CA II [4]; CA II, comparator 3a): 3.5 fold
NS(=O)(=O)c1ccc(O)c(NC(=O)NCCN2CCCCC2)c1 [Compound 3d, 4-Hydroxy-3-(3-(2-(piperidin-1-yl)ethyl)ureido)benzenesulfonamide]	4120 nM	14.3	659 nM	0.689 µM	288 nM	–
CCN1CCN(C(=O)Nc2cc(S(N)(=O)=O)ccc2O)CC1 [Compound 3f, 4-Ethyl-N-(2-hydroxy-5-sulfamoylphenyl)piperazine-1-carboxamide]	2150 nM	0.28	505 nM	8.99 µM	7740 nM	more effective CA XII inhibitor than 3d (human CA XII [2]; CA XII, comparator 3d): 1.3 fold; decrease of CA I affinity relative to 3d (human CA I [3]; CA I, comparator 3d): 13.1 fold
NS(=O)(=O)c1ccc(O)c(NC(=O)NCCc2ccccn2)c1 [Compound 3h, 4-Hydroxy-3-(3-(2-(pyridin-2-yl)ethyl)ureido)benzenesulfonamide]	–	0.0007	–	–	–	Ki (human CA I [5]): 571 nM; Ki (human CA XII [6]): 65.9 nM; Ki (human CA II [7]): 331 nM; Ki (human CA IX [8]): 0.24 nM; CA I potency increase relative to 3d (human CA I [3]; CA I, comparator 3d): 1.2 fold
